This note sets out measurements from patent US12201668B2, “Adiponectin peptidomimetics formulations” (ALLYSTA PHARMACEUTICALS, INC., priority 2018, dated 2025).

Non-standard residues stand in square brackets, D forms with d. Residues, ends and D or L forms follow the SMILES beside them. Nva = CCC[C@H](N)C(=O)O

Series [1] in a line: Solubility of the peptide in acetate buffer formulation. It counts as physicochemical. How it is done:
Vehicle was prepared by dissolving propylene glycol (1.77 g) and Tyloxapol (0.1 g) in 97 mL of 35 mM of Acetic Acid/Sodium Acetate buffer, pH 4.3-4.5 by mixing until uniform. The peptide D-Asn-Ile-Pro-Nva-Leu-Tyr-D-Ser-Phe-Ala-D-Ser-NH2 (API, also referred to as ALY688 or ALY-688 herein) (1.0 g) was added to the vehicle and mixed until dissolved. The pH was adjusted with small amounts of Acetic Acid or Sodium Hydroxide. The formulation was sterile-filtered.
A concentration of 12 mg/g Acetate buffer gave a clear solution at a pH 4.5.

The test system of series [2] is rabbit atropine-induced dry eye model. Nature of the series: Slit-lamp examination of the anterior segment (McDonald-Shattuck) in atropine-induced dry eye study. It counts as in vivo, NZW rabbits. The settings on record: ALY688 0.4% ophthalmic TID (Formula 22); baseline and Day 13. Here is the method:
(§1) The purpose of this study was to evaluate the efficacy of a topical ALY688 ophthalmic formulation according Formula 22 in Example 2 in a rabbit atropine-induced dry eye model.
(§2) Clinical evaluations of corneal fluorescein staining, tear break-up time and tear volume were determined at five timepoints during the 14 day dosing period. Pre-dose ophthalmic anterior segment slit-lamp exams with corneal fluorescein staining, Tear Volume (TV) and Tear Break-Up Time (TBUT) assessments were performed. Animals were assigned to treatment groups such that the average baseline TV and TBUT values were approximately equal across groups.
(§3) Study Groups were assigned as follows: • Group 1: Atropine+ALY688 0.4% ophthalmic TID, (n=6) • Group 2: Atropine+Vehicle ophthalmic TID, (n=6) • Group 3: Atropine only (n=4)
Examinations: Slit-lamp examinations of the anterior segment were performed at baseline and on Day 13 according to the McDonald-Shattuck Scoring System including conjunctival congestion, swelling, and discharge, corneal opacity, pannus, anterior chamber cells and flare, iris, light reflex, and lens.

Series [3] shares this test system. Nature of the series: Corneal epithelial fluorescein staining in atropine-induced dry eye. The series is classed as in vivo, NZW rabbits. How it is done:
as §1, §2, §3
(§4) Test article dosing began on Day −1.
(§5) Atropine eye drops (TID) began on Day 0.
(§6) Dry eye evaluations were performed on Days 1, 3, 7, 10, and 13.
Corneal epithelial staining: Corneal staining was assessed immediately after the TBUT measurement, after rinsing excess fluorescein. Fluorescein uptake was graded according to the NEI/Industry Grading System, in 5 separate areas of the cornea using a 0-3 grading scale maximum score: 15). Total staining score was calculated for each eye.

For series [4] the test system is unchanged. Nature of the series: Tear Break-Up Time (TBUT) in atropine-induced dry eye. The series is classed as in vivo, NZW rabbits. How it is done: as §1, §2, §3, §4, §5, §6
Tear Breakup Time (TBUT): TBUT was determined after instillation of 6 μL of 2% sodium fluorescein in sterile saline onto the lower eyelid. After manually blinking the eye, the time for black spots or streaks to appear on the cornea under cobalt filter illumination was recorded. The procedure was conducted three times consecutively, and the average of three readings was used.

For series [5] the test system is unchanged. Nature of the series: Tear Volume (TV, Schirmer Tear Test strips) in atropine-induced dry eye. It counts as in vivo, NZW rabbits. How it is done:
as §1, §2, §3, §4, §5, §6
Tear Volume (TV): Tear volume was measured using Schirmer Tear Test strips (Intervet, Inc., Summit, NJ), by placing the strip into the lower fornix for 60 seconds and recording the mm distance of the wetted area.

The test system is the same in series [6]. Nature of the series: Atropine-induced dry eye in rabbits, overall conclusion. The series is classed as in vivo, NZW rabbits. How it is done: as §1, §2, §3, §4, §5, §6
The evaluator was masked as to treatment group for all assessments.

[7] abbreviates: integrated AUC response vs baseline, p<0.005, FIG. 4.

Turning to `CCC[C@H](NC(=O)[C@@H]1CCCN1C(=O)[C@@H](NC(=O)[C@H](N)CC(N)=O)[C@@H](C)CC)C(=O)N[C@@H](CC(C)C)C(=O)N[C@@H](Cc1ccc(O)cc1)C(=O)N[C@H](CO)C(=O)N[C@@H](Cc1ccccc1)C(=O)N[C@@H](C)C(=O)N[C@H](CO)C(N)=O` [ALY688, D-Asn-Ile-Pro-Nva-Leu-Tyr-D-Ser-Phe-Ala-D-Ser-NH2] (H-[dN]IP[Nva]LY[dS]FA[dS]-NH2; N-terminus assumed), the “concentration that gave a clear solution” value in series [1] (Acetate buffer, pH 4.5) was found to be 12 mg/g. Besides, in series [1] (formulation of Example 1), the “solubility of the peptide” value was “significantly increased”. Moreover, in series [2], the “anterior segment slit-lamp exam findings related to test article” value was “no abnormal findings”. In series [3] (ALY688 0.4% TID, all evaluation timepoints, statistically significant on Days 1, 3, 10 (p<0.05)), the “corneal fluorescein staining vs vehicle control group” value is reported as “lower”. Moreover, in series [3] (setting [7]), the “corneal staining, integrated analysis at all post-baseline timepoints vs vehicle” value was “highly statistically significant improvement”. Moreover, the TBUT decrease in series [4] (ALY688 0.4% TID, Day 1 of atropine treatment (vehicle group 50%)) worked out at 32%. Besides, the “TBUT level by Day 7” value in series [4] (ALY688 0.4% TID, Day 7) was “returned to baseline TBUT levels”. Further, in series [4] (ALY688 0.4% TID, Days 7, 10 and 13 (p<0,01)), the “TBUT compared to vehicle” value is “statistically significant higher”. In series [4] (ALY688 0.4% TID, after Day 7 to Day 13), the “TBUT level through the remainder of the study” value was “maintained normal TBUT levels”. Besides, in series [4] (ALY688 0.4% TID, all post-baseline days, 2-sample two-tailed t-test), the “TBUT compared to atropine-only group” value is on record as “statistically significantly higher”. Besides, the “TBUT, integrated analysis at all post-baseline timepoints vs vehicle” value in series [4] (setting [7]) is on record as “highly statistically significant improvement”. For the same compound, the “Tear Volume vs vehicle group on Day 13” value in series [5] (ALY688 0.4% TID, Day 13 (p=0.01), borderline (p=0.08) on Days 1 and 7) is on record as “statistically significantly higher”. The “Tear Volume vs vehicle control group” value in series [5] (ALY688 0.4% TID, all timepoints) is “consistently higher”. In addition, the “Tear Volume, integrated analysis at all post-baseline timepoints vs vehicle” value in series [5] (setting [7]) is “highly statistically significant improvement”. Moreover, the “reduction of dry eye signs” value in series [6] (ALY688 ophthalmic solution 0.4% TID, 14 day dosing) is given as “highly effective at reducing dry eye signs”. The onset of effects result in series [6] (after initiation of ALY688 treatment) is given as “as early as two days after initiation”.
